Data from patent US20260116884A1, “PROTAC CHIMERIC COMPOUND, PREPARATION METHOD THEREFOR AND USE THEREOF” (HANGZHOU ZHONGMEIHUADONG PHARMACEUTICAL CO., LTD., priority 2022, published 2026).
Read-outs that look alike come from different tables or passages of the source.

What was measured:
[1] = system: IL2 activation in human PBMC; assay: IL2 activity assay (ELISA) in human PBMC; type: cell-based; conditions: CD3/CD28 antibody, 24 h
Method: The compound was diluted with DMSO in a dilution plate, with a maximum starting concentration of 10 μM, 8 concentration gradient points (3-fold dilution), and then added to the 96-well plate along with the addition of 5 µg/ml CD28 antibody. Incubation was performed for 24 h. • (3) The ELISA plate was washed twice with PBS, and an ELISA dilution was added at 100 µl/well. Then 100 μl of the standard and the incubated samples obtained in step 2 were added separately, and incubated for 2 h at room temperature. • (4) Each well was washed 3 times by adding with 400 μl washing buffer per well, and was finally blotted to dryness with a clean absorbent paper. • (5) 200 μl of the IL2 conjugate was added per well, covered with a fresh tape, and incubated for 2 h at room temperature. Step (4) was repeated. • (6) 200 μl of the substrate was added per well under the protection from light. The plate was incubated at room temperature for 20 min. • (7) 50 μL of a stop solution was added per well. The color of the wells should be from blue to yellow. Signals at […] were read by a microplate reader, and the signal intensity was used to characterize the activity level of IL2. EC50 values were obtained by fitting using the Prism software.

human HPK1 [2] = target: T1, human HPK1 (Homo sapiens, UniProt Q92918); assay: HPK1 protein degradation assay (WB) in RAMOS cell line; type: cell-based; set-up: The RAMOS cell line was selected as the degradation cell line; endogenous in cells; host or cells: RAMOS; conditions: RAMOS cells, 16 h, Western blot
Method: Degradation of HPK1 proteins and DC50/Dmax were determined by the WB method in order to evaluate the in vitro degradative ability of the compound.
The RAMOS cell line was selected as the degradation cell line. Incubation Conditions: RMPI 1640 culture medium supplemented with 10% FBS, 37° C., 5% CO2.
• (1) Plating cells: in a 6 cm dish with 4 ml of the culture medium, cells plated at 2×10^6 cells/dish. • (2) Drug addition: the compound (stock solution concentration: 10 mM) was diluted with DMSO in a dilution plate, with a maximum starting concentration of 10 μM and 7 concentration gradient points (3-fold dilution). 4 μl of each diluted solution was taken, added to a dish, and incubated for 16 h. • (3) Cells were harvested, added with a lysis buffer, and centrifuged at 12000 rpm/min for 20 min. The supernatant was collected. After quantification using a BCA quantification kit, 5× loading buffer was added to denature for 10 min. • (4) 10 μg of denatured protein was added to the SDS-PAGE gel. After electrophoresis and membrane transfer, the plate was blocked with 5% BSA for 1 h, incubate with the primary antibody at 4° C. overnight. After washing off the primary antibody, the secondary antibody was added, incubated at room temperature for 1 h, and washed off.
Imaging: the membranes were scanned with a two-color fluorescence imaging system.

human HPK1 [3] = target: T1, human HPK1; assay: Assay of in vitro HPK1 enzymatic activity (ADP-Glo); type: biochemical; conditions: 7 nM kinase, 20 uM ATP
Method: Compounds were evaluated for their ability to inhibit human HPK1 by IC50 determination using the ADP-Glo method to measure the kinase activity.
Buffer conditions of the enzyme: 50 mM Hepes (pH 7.5), 10 mM MgCl2, 1 mM EGTA, 0.01% Brij35, 2 mM DTT.
Preparation of the Kinase and substrate mixture: the working concentration of the kinase in the HPK1 reaction solution was 7 nM and the working concentration of ATP was 20 uM.
The compound was diluted with DMSO in a dilution plate, with a maximum starting concentration of 1 uM and 10 concentration gradient points (4-fold dilution).
Each of the above 10 concentration gradient points of the compound was then diluted 50-fold into the kinase reaction buffer and shaken on a shaker for 20 min. The kinase was prepared in an enzyme reaction buffer and 2 μl of the HPK1 kinase was added per well of the reaction plate at a HPK1 kinase concentration of 7 nM.
1 μl of diluted compound in the buffer was added per well, and the plate was sealed with a plate sealing film, centrifuged at 1000 g for 30 seconds, and left at room temperature for 10 minutes. An ATP solution was prepared with an enzyme reaction buffer and 2 μl of the ATP solution was added to the reaction plate (the working concentration of ATP was 20 uM). The plate was sealed with a plate sealing film, centrifuged at 1000 g for 30 seconds, and reacted at room temperature for 60 minutes. 4 μL of ADP-Glu was transferred to a 384 reaction plate, centrifuged at 1000 rpm/min for 1 min, and incubated at 25° C. for 40 min. 8 μL of the Detection solution was transferred to a 384 reaction plate, centrifuged at 1000 rpm/min for 1 min, and incubated at 25° C. for 40 min. The RLU (Relative luminescence unit) signal was read using a BMG microplate reader, and the signal intensity was used to characterize the activity level of the kinase.
The kinase activity data was expressed by comparing the kinase activity of the test compound and the blank group (containing only DMSO), and the IC50 value was obtained by curve fitting using the Prism software (GraphPad7.0).

[4] = Pharmacokinetics of single administration in mice; type: in vivo, Balb/c mice; set-up: Vz: unit not given here; conditions: for clearance / half-life / AUC / bioavailability / Cmax: female, Balb/c, mouse, plasma; for AUC: read-out: AUC; for bioavailability: po 10 mg/kg vs iv 2 mg/kg; for Cmax: read-out: Cmax
Method: Female Balb/c mice (weighing 18-22 g) were fasted overnight prior to the experiment. The test compound was dissolved in the vehicle, DMSO:PEG400:30% captisol:HCl=5:20:70:5 (v/v/v/v), and administered by single oral gavage at a dose of 10 mg/kg or by intravenous injection at a dose of 2 mg/kg. Blood samples were collected from the orbital venous plexus at 15 minutes, 30 minutes, and 1, 2, 4, 6, 8, and 24 h after administration. Approximately 0.08 mL of blood was collected at each time point and placed in a 1.5 mL centrifuge tube containing EDTA-2K anticoagulant. Blood samples were centrifuged (3200 g, 10 min, 4° C.) within 2 h to obtain plasma samples. Plasma samples were frozen at −70° C. to −80° C. in an ultra-low temperature freezer prior to processing. Before sample processing, the plasma samples were taken out of the freezer. After thawing at room temperature, 20 μL of each plasma sample was added into a 96-well plate, and then 120 μL of acetonitrile containing an internal standard was added to precipitate proteins. […] The supernatant was taken and mixed with an equal volume of 0.1% aqueous formic acid solution for LC-MS/MS analysis.

T1 sequence (Q92918 whole entry): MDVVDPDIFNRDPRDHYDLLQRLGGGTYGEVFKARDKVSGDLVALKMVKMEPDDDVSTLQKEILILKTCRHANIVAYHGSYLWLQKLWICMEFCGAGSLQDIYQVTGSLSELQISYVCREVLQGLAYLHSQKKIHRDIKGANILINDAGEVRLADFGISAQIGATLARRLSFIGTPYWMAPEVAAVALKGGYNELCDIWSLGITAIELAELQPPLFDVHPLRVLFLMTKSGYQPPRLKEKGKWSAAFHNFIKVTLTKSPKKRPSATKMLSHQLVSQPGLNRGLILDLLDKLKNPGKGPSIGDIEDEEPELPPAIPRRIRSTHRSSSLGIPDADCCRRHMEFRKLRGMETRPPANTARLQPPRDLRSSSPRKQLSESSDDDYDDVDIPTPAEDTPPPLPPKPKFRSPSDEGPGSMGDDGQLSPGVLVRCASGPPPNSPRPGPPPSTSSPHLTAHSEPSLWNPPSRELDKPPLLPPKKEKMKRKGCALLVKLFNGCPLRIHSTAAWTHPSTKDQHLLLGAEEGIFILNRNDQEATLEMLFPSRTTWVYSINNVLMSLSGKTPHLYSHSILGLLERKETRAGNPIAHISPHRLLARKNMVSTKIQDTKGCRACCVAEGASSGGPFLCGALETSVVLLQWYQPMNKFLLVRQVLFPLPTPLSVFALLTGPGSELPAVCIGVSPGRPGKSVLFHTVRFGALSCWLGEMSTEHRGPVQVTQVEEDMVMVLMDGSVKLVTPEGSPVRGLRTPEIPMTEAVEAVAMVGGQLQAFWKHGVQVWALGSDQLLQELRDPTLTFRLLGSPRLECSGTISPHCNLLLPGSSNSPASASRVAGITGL

Row | Compound | DC50 (human HPK1 [2]) [nM] | Dmax (human HPK1 [2]) [%] | IC50 (human HPK1 [3]) [nM] | EC50 [1] [nM] | also measured
1 | CCN1CCC(n2cc(-c3c[nH]c4ncc(-c5ccc(N6CCC(OC7CCN(C(=O)c8ccc(Cl)c(N9CCC(=O)NC9=O)c8)CC7)CC6)cc5)nc34)cn2)CC1 [Compound C131] | 386 | 52 |  | 41.7 | 
2 | CCN1CCC(n2cc(-c3c[nH]c4ncc(-c5ccc(N6CCC(OC7CCN(C(=O)c8ccc(Cl)c(N9CCC(=O)NC9=O)c8)CC7)CC6)c(F)c5)nc34)cn2)CC1 [Compound C134] | 7.22 | 78 |  | 41.7 | 
3 | [2H]C([2H])([2H])n1cc(-c2c[nH]c3ncc(-c4ccc(N5CCC(CC6CCN(C(=O)c7ccc(Cl)c(N8CCC(=O)NC8=O)c7)CC6)CC5)nc4)nc23)cn1 [Compound C160] | 12.7 | 88.8 |  | 45.5 | clearance ([4]; iv 2 mg/kg): 10.7 mL/min/kg; half-life ([4]; iv 2 mg/kg): 1.25 h; AUC ([4]; iv 2 mg/kg): 5330 ng·h/mL; half-life ([4]; po 10 mg/kg): 3.19 h; bioavailability [4]: 29.6%; AUC ([4]; po 10 mg/kg): 7960 ng·h/mL; Cmax ([4]; po 10 mg/kg): 2460 ng/mL; Vz ([4]; iv 2 mg/kg): 602
4 | CCN1CCC(n2cc(-c3c[nH]c4ncc(-c5ccc(N6CCC(CC7CCCN(C(=O)c8ccc(Cl)c(N9CCC(=O)NC9=O)c8)CC7)CC6)cc5)nc34)cn2)CC1 (stereo not drawn) [Compound C122] |  |  |  | 59.9 | 
5 | CCN1CCC(n2cc(-c3c[nH]c4ncc(-c5ccc(N6CCC(CC7CCN(C(=O)c8ccc(Cl)c(N9CCC(=O)NC9=O)c8)CC7)CC6)c(F)c5)nc34)cn2)CC1 [Compound C135] | 176 | 63 |  | 44.1 | 
6 | CCn1cc(-c2c[nH]c3ncc(-c4ccc(N5CCC(CC6CCN(C(=O)c7ccc(Cl)c(N8CCC(=O)NC8=O)c7)CC6)CC5)nc4)nc23)cn1 [Compound C162] | 29.2 | 86.5 |  | 27.3 | clearance ([4]; iv 2 mg/kg): 12.6 mL/min/kg; half-life ([4]; iv 2 mg/kg): 0.7 h; AUC ([4]; iv 2 mg/kg): 2640 ng·h/mL; half-life ([4]; po 10 mg/kg): 1.66 h; bioavailability [4]: 28%; AUC ([4]; po 10 mg/kg): 3690 ng·h/mL; Cmax ([4]; po 10 mg/kg): 1370 ng/mL; Vz ([4]; iv 2 mg/kg): 763
7 | O=C1CCN(c2cc(C(=O)N3CCC(CC4CCN(c5ccc(-c6cnc7[nH]cc(-c8cnn(C9CC9)c8)c7n6)cn5)CC4)CC3)ccc2Cl)C(=O)N1 [Compound C170] | 52.2 | 87.1 |  | 23.8 | clearance ([4]; iv 2 mg/kg): 6.9 mL/min/kg; half-life ([4]; iv 2 mg/kg): 0.7 h; AUC ([4]; iv 2 mg/kg): 4830 ng·h/mL; half-life ([4]; po 10 mg/kg): 4.22 h; bioavailability [4]: 27.6%; AUC ([4]; po 10 mg/kg): 6670 ng·h/mL; Cmax ([4]; po 10 mg/kg): 1390 ng/mL; Vz ([4]; iv 2 mg/kg): 1329
8 | CCN1CCC(n2cc(-c3c[nH]c4ncc(-c5ccc(N6CCC(C)(CN7CCN(C(=O)c8ccc(Cl)c(N9CCC(=O)NC9=O)c8)CC7)CC6)cc5)nc34)cn2)CC1 [Compound C139] | 52.4 | 80.9 |  | 104 | 
9 | C/C(=C(Cl)\C=C/CC(=O)N1CCC(CC2CCN(c3ccc(-c4cnc5[nH]cc(-c6cnn(C)c6)c5n4)cn3)CC2)CC1)N1CCC(=O)NC1=O [Compound C110] | 9.35 | 93 |  | 55.6 | clearance ([4]; iv 2 mg/kg): 8.27 mL/min/kg; half-life ([4]; iv 2 mg/kg): 0.98 h; AUC ([4]; iv 2 mg/kg): 4030 ng·h/mL; half-life ([4]; po 10 mg/kg): 3.35 h; bioavailability [4]: 17.7%; AUC ([4]; po 10 mg/kg): 2210 ng·h/mL; Cmax ([4]; po 10 mg/kg): 840 ng/mL; Vz ([4]; iv 2 mg/kg): 701.3
10 | CCN1CCC(n2cc(-c3c[nH]c4ncc(-c5cnc(N6CCN(CC7CCN(C(=O)c8cccc(N9CCC(=O)NC9=O)c8)CC7)CC6)c(C)c5)nc34)cn2)CC1 [Compound C002] |  |  | 2.6 |  | 
11 | CCN1CCC(n2cc(-c3c[nH]c4ncc(-c5ccc(N6CCN(C(=O)CCCCCNc7cccc8c7C(=O)N(C7CCC(=O)NC7=O)C8=O)CC6)nc5)nc34)cn2)CC1 (stereo not drawn) [Compound C026] |  |  | 1.6 |  | 

The next lines start with results.

Row | DC50 (human HPK1 [2]) [nM] | Dmax (human HPK1 [2]) [%] | IC50 (human HPK1 [3]) [nM] | Compound | EC50 [1] [nM] | also measured
12 |  |  | 3.6 | CCN1CCC(n2cc(-c3c[nH]c4ncc(-c5cnc(N6CCN(CC7CCN(C(=O)c8ccc(Cl)c(N9CCC(=O)NC9=O)c8)CC7)CC6)c(C)c5)nc34)cn2)CC1 [Compound C003] | 111 | 
13 | 2.1 | 77 | 2.3 | CCN1CCC(n2cc(-c3c[nH]c4ncc(-c5ccc(N6CCC(CC7CCN(C(=O)c8ccc(Cl)c(N9CCC(=O)NC9=O)c8)CC7)CC6)nc5)nc34)cn2)CC1 [Compound C024] | 196 | 
14 |  |  | 0.9 | CCN1CCC(n2cc(-c3c[nH]c4ncc(-c5cnc(N6CCN(C7CCC(NC(=O)c8cccc(N9CCC(=O)NC9=O)c8)CC7)CC6)c(C)c5)nc34)cn2)CC1 (stereo not drawn) [Compound C017] | 324 | 
15 |  |  | 1.8 | CCN1CCC(n2cc(-c3c[nH]c4ncc(-c5cnc(N6CCN(C7CCC(NC(=O)c8ccc(Cl)c(N9CCC(=O)NC9=O)c8)CC7)CC6)c(C)c5)nc34)cn2)CC1 (stereo not drawn) [Compound C018] | 102 | 
16 |  |  | 3.2 | CCN1CCC(n2cc(-c3c[nH]c4ncc(-c5cnc(OCC(=O)Nc6ccc(NC7CCC(=O)NC7=O)cc6)c(C)c5)nc34)cn2)CC1 (stereo not drawn) [Compound C006] | 179 | 
17 | 29.3 | 73 |  | CCN1CCC(n2cc(-c3c[nH]c4ncc(-c5ccc(N6CCC(OC7CCN(C(=O)c8ccc(Cl)c(N9CCC(=O)NC9=O)c8)CC7)CC6)c(C)c5)nc34)cn2)CC1 [Compound C132] | 34.6 | 
18 |  |  | 0.5 | CCN1CCC(n2cc(-c3c[nH]c4ncc(-c5ccc(N6CCN(C7CCC(NC(=O)c8ccc(Cl)c(N9CCC(=O)NC9=O)c8)CC7)CC6)c(C)c5)nc34)cn2)CC1 (stereo not drawn) [Compound C021] | 37.9 | 
19 | 55 | 86 | 1.4 | CCN1CCC(n2cc(-c3c[nH]c4ncc(-c5cnc(OCCNC(=O)c6ccc(Cl)c(N7CCC(=O)NC7=O)c6)c(C)c5)nc34)cn2)CC1 [Compound C022] | 95.6 | 
20 |  |  | 2 | CCN1CCC(n2cc(-c3c[nH]c4ncc(-c5cnc(OC6CCN(C(=O)c7cccc(N8CCC(=O)NC8=O)c7)CC6)c(C)c5)nc34)cn2)CC1 [Compound C019] |  | 
